Experiments:
[1] = Dense specific volume (Multi Tester MT-1001T); format: physicochemical; settings: α-type crystal; 200 taps
Method: Here, the “dense specific volume” refers to a value which is obtained by dividing a volume occupied by a powder by a mass when the powder is filled in a container and the mass of the powder is measured, and thereafter a given impact is applied to the container.
[Measurement Conditions for Dense Specific Volume]

[2] = Loose specific volume (Multi Tester MT-1001T); format: physicochemical; settings: for Difference in specific volume: loose minus dense specific volume; for Loose specific volume: α-type crystal
Method: Here, the “loose specific volume” refers to a value which is obtained by dividing a volume occupied by a powder by a mass when the powder is filled in a container and the mass of the powder is measured.
[Measurement Conditions for Loose Specific Volume]
Vibration width: 0.6 to 0.7 mm

[3] = Crystal thickness by scanning electron microscope; format: physicochemical; settings: α-type crystal
From the text: In this description, when a crystal is ascertained three-dimensionally using a microscope, the longest axis is referred to as “longitudinal axis”, and an axis perpendicular to the longitudinal axis is referred to as “lateral axis” (FIG. 2). Further, the length in the longitudinal axis direction of a crystal, the major axis of the cross section of the lateral axis, and the minor axis of the cross section of the lateral axis are referred to as “crystal length”, “crystal width”, and “crystal thickness”, respectively (see FIG. 2), and the averages thereof are referred to as “average length”, “average width”, and “average thickness”, respectively.
The crystal thickness can be measured, for example, using a scanning electron microscope [JSM-6510 (manufactured by JEOL Ltd.)] at a measurement magnification of 250 to 1000 times. For example, as for 50 crystals, crystals whose longitudinal axis is perpendicular to the scanning electron microscope field of view are selected, and the thickness of each crystal is measured (FIG. 2, right drawing), and the average thickness T is measured. A sample is fixed to an aluminum sample stand with a carbon double-sided tape.

[4] = compared with Comparative Example
From the text: FIG. 1 illustrates the change in loose specific volume over time when crystals of reduced glutathione obtained in Example 3 and Comparative Example were pulverized. The vertical axis represents the loose specific volume (mL/g), and the horizontal axis represents the pulverization time (min).
The crystal of reduced glutathione of the present invention can be produced by further pulverizing the crystal of reduced glutathione of the present invention obtained by the above-mentioned method. The pulverization of the crystal can be performed, for example, using Osterizer Oster Vintage Blender 16-speed Dual Range (Osterizer OSTER) under the following conditions.
[Conditions for Pulverization of Crystal]
Sample feeding amount: 20 g/feed
The α-type crystals of reduced glutathione obtained in Example 3 and Comparative Example were pulverized, and the change in loose specific volume over time was measured.

[5] = Angle of rupture (Multi Tester MT-1001T)
[6] = Angle of repose (Multi Tester MT-1001T)

| SMILES | Dense specific volume [1] [mL/g] | Difference in specific volume [2] [mL/g] | Loose specific volume [2] [mL/g] | Average crystal thickness T [3] [μm] | loose specific volume during pulverization ([4]; all pulverization times) | pulverization behaviour (speed of pulverization, convergence of specific volume) ([4]; FIG. 1) | Angle of rupture ([5]; After pulverization) [°] | Angle of rupture ([5]; Before pulverization) [°] | Angle of repose ([6]; After pulverization) [°] | Angle of repose ([6]; Before pulverization) [°] | flowability ([6]; from Table 3, before and after pulverization) |
| --- | --- | --- | --- | --- | --- | --- | --- | --- | --- | --- | --- |
| N[C@@H](CCC(=O)N[C@@H](CS)C(=O)NCC(=O)O)C(=O)O [Commercially available product B, reduced glutathione] | 2.88 | 2.61 | 5.50 |  |  |  |  |  |  |  |  |
| N[C@@H](CCC(=O)N[C@@H](CS)C(=O)NCC(=O)O)C(=O)O [Example 1, reduced glutathione] | 1.26 | 0.62 | 1.88 | 17.0 |  |  |  |  |  |  |  |
| N[C@@H](CCC(=O)N[C@@H](CS)C(=O)NCC(=O)O)C(=O)O [Example 3, reduced glutathione] | 1.29 | 0.71 | 2.00 | 16.7 | smaller | pulverized more promptly | 31.1 | 39.4 | 37.4 | 42.4 | the flowability is high |
| N[C@@H](CCC(=O)N[C@@H](CS)C(=O)NCC(=O)O)C(=O)O [Comparative Example, reduced glutathione] | 1.95 | 1.48 | 3.42 | 5.5 |  |  | 41.5 | 46.8 | 51.8 | 51.4 |  |
| N[C@@H](CCC(=O)N[C@@H](CS)C(=O)NCC(=O)O)C(=O)O [Commercially available product A, reduced glutathione] | 2.49 | 2.20 | 4.69 | 1.9 |  |  |  |  |  |  |  |
| N[C@@H](CCC(=O)N[C@@H](CS)C(=O)NCC(=O)O)C(=O)O [Example 2, reduced glutathione] | 1.29 | 0.71 | 2.00 | 16.7 |  |  |  |  |  |  |  |

Reference: patent US10774109B2, “Crystal of reduced glutathione and method for producing same” (KYOWA HAKKO BIO CO., LTD., priority 2016, dated 2020)
